Activity calls are given as the source filed them.
Assays:
[1] = molecular target: 5-hydroxytryptamine receptor 1A (Homo sapiens, UniProt P08908); type: functional
[2] = molecular target: Luciferin 4-monooxygenase (Photinus pyralis, UniProt P08659); assay: firefly luciferase enzyme inhibitors, dose response, biochemical, luminescence (AID 1891)
[3] = Fluorescence Cell-Based Dose Response to Identify Inhibitors of Thrombin Receptor-Activating Peptide SFLLRN-Mediated P-Selectin Induction on Platelets. [Related pubchem assays: 1663 (Primary HTS), 1889 (retest at dose ), 1891 (counterscreen), 1678 (Project Summary)]; type: functional
[4] = Luminescence Cell-Based Dose Confirmation HTS to Identify Inhibitors of Platelet Dense Granule Release. [Related pubchem assays: 1663 (Primary HTS), 1678 (Summary of Project)]; type: functional
[5] = molecular target: T1, Orexin receptor type 2 (Homo sapiens, UniProt O43614); assay: Counterscreen assay for antagonists of the orexin 1 receptor (OX1R; HCRTR1): Fluorescence-based cell-based dose response assay for antagonists of the orexin 2 receptor (OX2R; HCRTR2), run by assay provider.; type: functional
T1 sequence (O43614 whole entry): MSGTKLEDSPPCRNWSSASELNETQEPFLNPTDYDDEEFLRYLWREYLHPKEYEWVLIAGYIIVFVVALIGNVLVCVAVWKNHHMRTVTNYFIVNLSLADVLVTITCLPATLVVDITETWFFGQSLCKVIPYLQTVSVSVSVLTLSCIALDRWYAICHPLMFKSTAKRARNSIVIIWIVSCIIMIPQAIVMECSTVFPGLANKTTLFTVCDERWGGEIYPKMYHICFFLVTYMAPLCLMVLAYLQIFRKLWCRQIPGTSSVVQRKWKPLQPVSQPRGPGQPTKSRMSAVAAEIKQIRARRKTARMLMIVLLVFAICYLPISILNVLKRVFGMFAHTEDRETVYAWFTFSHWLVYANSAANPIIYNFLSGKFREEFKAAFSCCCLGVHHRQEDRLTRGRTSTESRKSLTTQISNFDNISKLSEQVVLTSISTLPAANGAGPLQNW

[6] = Counterscreen for antagonists of the orexin 1 receptor (OX1R; HCRTR1): Fluorescence-based cell-based high throughput dose response assay to identify antagonists of the parental CHO cell line. [Related pubchem assays (depositor defined):AID434989, AID435008, AID463079, AID485270, AID492963, AID492964, AID492965, AID493232, AID504699, AID504701]; type: functional
[7] = molecular target: T2, Orexin/Hypocretin receptor type 1 (Homo sapiens, UniProt O43613); assay: Homogeneous Time Resolved Fluorescence (HTRF)-based cell-based high throughput dose response assay for antagonists of the orexin 1 receptor (OX1R; HCRTR1). [Related pubchem assays (depositor defined):AID434989, AID435008, AID463079, AID485270, AID492963, AID492964, AID492965, AID493232, AID504717, AID504718]; type: functional
T2 sequence (O43613 whole entry): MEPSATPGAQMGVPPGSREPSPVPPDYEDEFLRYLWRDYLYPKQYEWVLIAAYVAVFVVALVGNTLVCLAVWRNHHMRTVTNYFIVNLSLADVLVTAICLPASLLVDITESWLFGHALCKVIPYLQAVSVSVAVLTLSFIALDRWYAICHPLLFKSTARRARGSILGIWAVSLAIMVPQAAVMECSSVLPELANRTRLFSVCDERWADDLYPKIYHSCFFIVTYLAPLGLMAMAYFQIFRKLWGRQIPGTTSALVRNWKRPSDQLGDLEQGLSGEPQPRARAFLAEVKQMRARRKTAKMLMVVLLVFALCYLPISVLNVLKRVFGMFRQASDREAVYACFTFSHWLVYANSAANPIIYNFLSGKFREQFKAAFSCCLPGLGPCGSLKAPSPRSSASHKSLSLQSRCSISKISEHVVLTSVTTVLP

[8] = molecular target: T1, Orexin receptor type 2; assay: Counterscreen assay for antagonists of the orexin 1 receptor (OX1R; HCRTR1): Homogeneous Time Resolved Fluorescence (HTRF)-based cell-based dose response assay for antagonists of the orexin 2 receptor (OX2R; HCRTR2), run by assay provider.; type: functional
[9] = molecular target: Ubiquitin carboxyl-terminal hydrolase BAP1 (Homo sapiens, UniProt Q92560); assay: BAP1 deubiquitinase inhibitors, dose response, biochemical (AID 714); type: functional
[10] = molecular target: DNA dC->dU-editing enzyme APOBEC-3G (Homo sapiens, UniProt Q9HC16); assay: Dose Response confirmation of small molecule APOBEC3G DNA Deaminase Inhibitors via a fluorescence-based single-stranded DNA deaminase assay. [Related pubchem assays (depositor defined):AID493012, AID493028]; type: functional
[11] = molecular target: T2, Orexin/Hypocretin receptor type 1; assay: Fluorescence-based cell-based high throughput dose response assay for antagonists of the orexin 1 receptor (OX1R; HCRTR1). [Related pubchem assays (depositor defined):AID434989, AID435008, AID463079, AID485270, AID492963, AID492964, AID492965, AID493232, AID504717, AID504718]; type: functional
[12] = test system: CHO-K1; assay: Counterscreen for antagonists of the orexin 1 receptor (OX1R; HCRTR1): Homogeneous time resolved fluorescence (HTRF)-based cell-based dose response assay to identify antagonists of the parental CHO-K1 cell line. [Related pubchem assays (depositor defined):AID434989, AID435008, AID463079, AID485270, AID492963, AID492964, AID492965, AID493232, AID504699, AID504701]; type: functional; details: Cricetulus griseus;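 also: potency for inhibition of ATP-stimulated IP1 production as antagonists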
[13] = Luminescent dose response cell-based high throughput screening assay for inhibitors of the Janus kinase 2 mutant JAK2V617F. [Related pubchem assays: 1446 (Primary screen.), 1521 (Confirmation assay.), 1486 (Counter screen.)]; type: functional
[14] = cytotoxicity toward NIH3T3 fibroblasts, dose response, counter-screen, cell-based, ATP luminescence, mouse fibroblasts (AID 2010); type: functional;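 also: cells exposed to compound for about 90 hours before reading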
[15] = molecular target: Photoreceptor-specific nuclear receptor (Homo sapiens, UniProt Q9Y5X4); assay: NR2E3 inverse agonists, dose response, biochemical, TR-FRET (AID 463256); type: functional
[16] = molecular target: T3, Sentrin-specific protease 8 (Homo sapiens, UniProt Q96LD8); type: functional
T3 sequence (Q96LD8 whole entry): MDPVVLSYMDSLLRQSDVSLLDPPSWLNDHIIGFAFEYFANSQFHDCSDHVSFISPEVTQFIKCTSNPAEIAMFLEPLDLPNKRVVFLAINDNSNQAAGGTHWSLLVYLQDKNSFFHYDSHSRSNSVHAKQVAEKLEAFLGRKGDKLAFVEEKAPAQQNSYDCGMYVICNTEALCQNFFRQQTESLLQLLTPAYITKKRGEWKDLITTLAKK

[17] = test system: H4; assay: Luminescence Cell-Based Dose Response HTS to Identify Activators of 5'UTR Stem-Loop Driven Prion Protein mRNA Translation in H4 Neuroglioblastoma Cells. [Related pubchem assays: 1829 (Project Summary), 1814 (Primary HTS)]; type: functional; details: Homo sapiens
[18] = molecular target: T4, Caspase-3 (Homo sapiens, UniProt P42574); assay: Dose-response confirmation of uHTS inhibitor hits of Sentrin-Specific Protease 8 in a Caspase-3 Fluorescence assay.; type: functional
T4 sequence (P42574 whole entry): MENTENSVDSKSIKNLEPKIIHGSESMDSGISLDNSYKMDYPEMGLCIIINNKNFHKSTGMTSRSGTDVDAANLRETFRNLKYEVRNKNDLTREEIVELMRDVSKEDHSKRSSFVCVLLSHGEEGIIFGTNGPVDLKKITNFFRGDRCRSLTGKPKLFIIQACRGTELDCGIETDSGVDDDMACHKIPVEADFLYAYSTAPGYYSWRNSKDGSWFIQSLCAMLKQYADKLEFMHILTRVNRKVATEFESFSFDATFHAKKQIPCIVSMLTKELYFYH

[19] = molecular target: T5, Protein RecA (Mycobacterium tuberculosis, UniProt P9WHJ3); assay: Fluorescence Cell-Free Homogeneous Dose Retest to Identify Inhibitors of RecA-Intein Splicing Activity. [Related pubchem assays (depositor defined):AID2097, AID2223, AID489010, AID492950]; type: functional
T5 sequence (P9WHJ3 whole entry): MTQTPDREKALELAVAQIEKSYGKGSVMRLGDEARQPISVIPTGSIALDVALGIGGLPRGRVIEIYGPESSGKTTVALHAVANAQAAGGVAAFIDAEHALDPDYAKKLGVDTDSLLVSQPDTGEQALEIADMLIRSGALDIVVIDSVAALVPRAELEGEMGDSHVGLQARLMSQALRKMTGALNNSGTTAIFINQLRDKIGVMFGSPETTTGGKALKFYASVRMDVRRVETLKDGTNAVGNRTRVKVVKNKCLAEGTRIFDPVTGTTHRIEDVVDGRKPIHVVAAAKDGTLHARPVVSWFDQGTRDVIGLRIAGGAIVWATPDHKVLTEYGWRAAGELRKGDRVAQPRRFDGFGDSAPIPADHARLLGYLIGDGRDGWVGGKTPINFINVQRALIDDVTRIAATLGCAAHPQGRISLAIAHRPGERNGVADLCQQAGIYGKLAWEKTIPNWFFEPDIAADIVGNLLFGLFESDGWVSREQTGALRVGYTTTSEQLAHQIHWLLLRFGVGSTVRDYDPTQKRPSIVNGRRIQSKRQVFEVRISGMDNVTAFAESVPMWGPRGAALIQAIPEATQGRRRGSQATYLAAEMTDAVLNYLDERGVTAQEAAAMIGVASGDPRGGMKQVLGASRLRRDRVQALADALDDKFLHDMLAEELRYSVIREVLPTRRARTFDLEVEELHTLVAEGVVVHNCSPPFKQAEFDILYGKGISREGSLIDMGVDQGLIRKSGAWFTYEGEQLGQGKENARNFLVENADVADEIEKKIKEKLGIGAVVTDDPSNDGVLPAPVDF

[20] = molecular target: Nonstructural protein 1 (Influenza A virus, UniProt Q194T2); type: functional, Influenza A virus (A/California/07/2009(H1N1))
[21] = Luminescence Cell-Based Dose Response HTS to Identify Activators of Luciferase Translation or Activity in H4 […] Cells. [Related pubchem assays: 1829 (Project Summary), 1814 (Primary HTS)]; type: functional
[22] = Luminescence Cell-Based Dose Confirmation HTS to Identify Activators of 5'UTR Stem-Loop Driven Alpha-Synuclein mRNA Translation in H4 Neuroglioblastoma Cells. [Related pubchem assays: 1829 (Project Summary), 1814 (Primary HTS)]; type: functional
[23] = inhibitors of intracellular T. cruzi replication, confirmation, NIH3T3 host cells, beta-gal luminescence (AID 2044); type: functional, cell-based;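 also: intracellular parasites grown in NIH/3T3 mouse fibroblasts as host cells; luminescent beta-galactosidase reporter signal from transgenic T. cruzi replicating inside host cells; inhibitors lower the luminescence signal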
[24] = molecular target: T3, Sentrin-specific protease 8; type: functional; remark: listed apart in the source
[25] = molecular target: T6, Replicative DNA helicase DnaB (Mycobacterium tuberculosis, UniProt P9WMR3); assay: DnaB intein splicing inhibitors, dose response, biochemical, cell-free fluorescence (AID 449749); type: functional
T6 sequence (P9WMR3 whole entry): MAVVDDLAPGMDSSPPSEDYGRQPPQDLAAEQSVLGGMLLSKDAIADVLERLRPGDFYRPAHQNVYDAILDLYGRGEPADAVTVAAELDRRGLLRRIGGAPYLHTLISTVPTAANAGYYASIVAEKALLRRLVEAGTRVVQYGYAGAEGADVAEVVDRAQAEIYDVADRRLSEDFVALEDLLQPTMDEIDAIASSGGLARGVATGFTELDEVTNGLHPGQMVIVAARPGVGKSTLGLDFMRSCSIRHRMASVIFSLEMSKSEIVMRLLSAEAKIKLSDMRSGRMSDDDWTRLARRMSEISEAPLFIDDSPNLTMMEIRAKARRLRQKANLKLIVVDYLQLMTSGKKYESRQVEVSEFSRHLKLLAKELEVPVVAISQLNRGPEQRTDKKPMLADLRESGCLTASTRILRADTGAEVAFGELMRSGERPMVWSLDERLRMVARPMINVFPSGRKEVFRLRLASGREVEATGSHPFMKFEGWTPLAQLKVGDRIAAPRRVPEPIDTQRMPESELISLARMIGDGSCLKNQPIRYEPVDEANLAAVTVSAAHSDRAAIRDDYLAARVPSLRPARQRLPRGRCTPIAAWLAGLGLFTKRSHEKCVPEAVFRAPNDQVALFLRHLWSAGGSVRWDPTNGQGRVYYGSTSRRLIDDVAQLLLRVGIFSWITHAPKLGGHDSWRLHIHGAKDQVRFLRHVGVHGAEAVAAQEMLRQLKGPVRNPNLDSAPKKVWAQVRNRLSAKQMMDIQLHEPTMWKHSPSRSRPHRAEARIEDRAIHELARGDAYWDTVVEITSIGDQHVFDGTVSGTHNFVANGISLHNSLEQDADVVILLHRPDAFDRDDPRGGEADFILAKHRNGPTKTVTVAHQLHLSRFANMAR

[26] = molecular target: Peroxisome proliferator-activated receptor gamma/Nuclear receptor corepressor 2 (Homo sapiens, UniProt P37231+Q9Y618); assay: Counterscreen for NR2E3 inverse agonists: TR-FRET-based biochemical high throughput dose response assay to identify inverse agonists of the interaction between peroxisome proliferator-activated receptor gamma (PPARg) and nuclear receptor co-repressor 2 (NCOR2).; type: functional

Sequence of Nonstructural protein 1 (Q194T2 whole entry): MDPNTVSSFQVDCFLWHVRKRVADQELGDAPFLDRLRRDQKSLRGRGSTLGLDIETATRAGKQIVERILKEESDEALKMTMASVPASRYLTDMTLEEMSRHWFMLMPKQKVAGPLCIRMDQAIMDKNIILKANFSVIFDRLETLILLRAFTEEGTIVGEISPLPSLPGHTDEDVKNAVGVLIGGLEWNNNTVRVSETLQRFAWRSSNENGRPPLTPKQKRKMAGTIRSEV
Sequence of Photoreceptor-specific nuclear receptor (Q9Y5X4 whole entry): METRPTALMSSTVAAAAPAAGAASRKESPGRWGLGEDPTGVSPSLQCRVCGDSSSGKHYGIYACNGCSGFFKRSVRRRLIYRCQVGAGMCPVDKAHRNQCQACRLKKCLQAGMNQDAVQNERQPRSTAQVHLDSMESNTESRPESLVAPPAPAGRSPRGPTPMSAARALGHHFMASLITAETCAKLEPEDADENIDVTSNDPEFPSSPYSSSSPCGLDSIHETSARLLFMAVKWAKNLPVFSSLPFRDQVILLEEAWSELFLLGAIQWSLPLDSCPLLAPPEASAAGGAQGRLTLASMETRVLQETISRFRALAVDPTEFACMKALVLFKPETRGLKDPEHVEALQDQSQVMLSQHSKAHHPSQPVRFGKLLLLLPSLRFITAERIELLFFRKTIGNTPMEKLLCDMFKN
Sequence of Ubiquitin carboxyl-terminal hydrolase BAP1 (Q92560 whole entry): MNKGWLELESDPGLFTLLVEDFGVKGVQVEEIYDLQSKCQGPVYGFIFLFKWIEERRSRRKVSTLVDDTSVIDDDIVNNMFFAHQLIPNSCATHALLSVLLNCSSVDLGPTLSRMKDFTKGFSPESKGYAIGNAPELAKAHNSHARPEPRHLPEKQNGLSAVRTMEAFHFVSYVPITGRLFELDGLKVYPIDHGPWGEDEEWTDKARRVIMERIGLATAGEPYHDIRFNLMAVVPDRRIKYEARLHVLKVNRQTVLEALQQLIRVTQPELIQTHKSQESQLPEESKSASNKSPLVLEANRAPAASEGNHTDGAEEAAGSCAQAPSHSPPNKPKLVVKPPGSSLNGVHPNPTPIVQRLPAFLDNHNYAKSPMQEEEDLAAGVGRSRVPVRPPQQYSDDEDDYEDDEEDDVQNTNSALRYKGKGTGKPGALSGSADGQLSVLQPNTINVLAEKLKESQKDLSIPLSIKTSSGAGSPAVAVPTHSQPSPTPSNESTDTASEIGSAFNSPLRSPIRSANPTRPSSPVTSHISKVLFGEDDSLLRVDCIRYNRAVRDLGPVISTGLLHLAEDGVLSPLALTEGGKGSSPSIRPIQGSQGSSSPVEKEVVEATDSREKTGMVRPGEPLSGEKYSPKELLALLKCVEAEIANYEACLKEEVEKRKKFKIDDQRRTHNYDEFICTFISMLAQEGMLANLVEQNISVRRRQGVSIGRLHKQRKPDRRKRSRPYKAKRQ
Sequence of 5-hydroxytryptamine receptor 1A (P08908 whole entry): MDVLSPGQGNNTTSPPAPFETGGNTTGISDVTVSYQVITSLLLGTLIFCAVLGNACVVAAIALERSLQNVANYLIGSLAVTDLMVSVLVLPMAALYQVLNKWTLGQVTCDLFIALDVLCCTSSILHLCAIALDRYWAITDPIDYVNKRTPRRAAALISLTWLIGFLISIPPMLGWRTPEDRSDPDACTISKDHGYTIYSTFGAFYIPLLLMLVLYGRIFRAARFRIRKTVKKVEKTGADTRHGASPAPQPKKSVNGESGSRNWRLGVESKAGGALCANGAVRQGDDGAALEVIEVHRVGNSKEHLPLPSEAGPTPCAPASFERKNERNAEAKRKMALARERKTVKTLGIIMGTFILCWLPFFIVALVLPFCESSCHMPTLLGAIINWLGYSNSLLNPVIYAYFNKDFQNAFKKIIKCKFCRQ
Sequence of DNA dC->dU-editing enzyme APOBEC-3G (Q9HC16 whole entry): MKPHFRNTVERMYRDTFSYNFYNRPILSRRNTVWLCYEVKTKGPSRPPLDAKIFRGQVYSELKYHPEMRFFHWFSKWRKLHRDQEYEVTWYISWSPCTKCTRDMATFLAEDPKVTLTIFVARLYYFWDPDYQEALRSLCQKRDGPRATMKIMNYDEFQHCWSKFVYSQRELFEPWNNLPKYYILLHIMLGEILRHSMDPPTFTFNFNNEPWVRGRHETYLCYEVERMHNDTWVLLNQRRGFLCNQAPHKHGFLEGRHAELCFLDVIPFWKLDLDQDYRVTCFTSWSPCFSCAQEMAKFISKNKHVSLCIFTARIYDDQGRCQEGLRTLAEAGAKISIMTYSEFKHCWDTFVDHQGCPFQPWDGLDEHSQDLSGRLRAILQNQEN
Sequence of Luciferin 4-monooxygenase (P08659 whole entry): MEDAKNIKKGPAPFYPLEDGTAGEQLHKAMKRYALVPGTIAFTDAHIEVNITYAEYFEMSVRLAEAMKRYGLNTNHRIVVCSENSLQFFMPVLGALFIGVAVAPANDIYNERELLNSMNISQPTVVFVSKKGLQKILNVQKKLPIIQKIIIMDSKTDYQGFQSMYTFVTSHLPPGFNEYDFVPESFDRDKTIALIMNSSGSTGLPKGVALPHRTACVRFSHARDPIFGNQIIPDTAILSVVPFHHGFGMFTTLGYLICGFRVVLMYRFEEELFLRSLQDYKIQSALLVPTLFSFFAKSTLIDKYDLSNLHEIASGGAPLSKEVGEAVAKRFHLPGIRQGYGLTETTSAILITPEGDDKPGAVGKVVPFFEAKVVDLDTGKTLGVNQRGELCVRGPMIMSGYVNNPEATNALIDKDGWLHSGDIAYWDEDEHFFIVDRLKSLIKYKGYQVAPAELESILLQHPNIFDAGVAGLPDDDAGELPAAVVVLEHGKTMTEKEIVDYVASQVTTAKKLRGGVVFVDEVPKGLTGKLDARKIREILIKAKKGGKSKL

CCCCN(C)CCCNC(=O)Cn1c(=O)sc2ccccc21
EC50 [1]: > 50 µM (not active)

COc1cc2c(cc1OC)-c1cc(N3CCc4ccccc43)nc(=O)n1CC2
EC50 [2]: > 112 µM (not active)
EC50 [3]: < 0.3 µM (active)
EC50 [4]: 6.83 µM (active)

COC(=O)c1ccccc1NC(=O)c1sc(=S)n(C)c1N
IC50 [5]: 1.4 µM (active)
IC50 [6]: > 49.8 µM (inactive)
IC50 [7]: 0.407 µM (active)
IC50 [8]: > 50 µM (inactive)
IC50 [9]: > 50 µM (not active)
IC50 [10]: 67.7 µM (active)
IC50 [11]: 1.41 µM (active)
IC50 [12]: > 66.2 µM (inactive)

CC(C)(C)OC(=O)N[C@@H](Cc1ccccc1)c1nnc(S(=O)(=O)Cc2cccc(F)c2)o1
IC50 [13]: 0.788 µM (active)

Cc1ccc(S(=O)(=O)NC(=O)Nc2ccc(N(C)C)cc2)cc1
EC50 [14]: > 60 µM (not active)
IC50 [15]: 0.748 µM (active)
IC50 [16]: 7.83 µM (active)
EC50 [17]: 1.97 µM (active)
IC50 [18]: 18.1 µM (active)
EC50 [19]: 5.18 µM (active)
IC50 [20]: 44.1 µM (active)
EC50 [21]: 13 µM (active)
EC50 [22]: 7.5 µM (active)
EC50 [23]: 1.39 µM (active)
IC50 [24]: 7.02 µM (active)
AC50 [25]: > 380 µM (inactive)
IC50 [26]: 0.503 µM (active)

— ChEMBL document CHEMBL1201862, “PubChem BioAssay data set” (2004)
